Laboratory results from patent publication US9440969B2, “Compounds and methods for kinase modulation, and indications therefor” (PLEXXIKON INC., priority 2009, dated 2016).

Legend:
[1] = target: CYP2D6 (Homo sapiens, UniProt P10635); experiment: CYP2D6 inhibition (fluorescent substrate AMMC); format: in vitro ADME; details: read-out: Cyp IC50 (μM) 2D6
Description: (§1) CYP (Cytochrome P450) enzymes are the major drug metabolizing enzymes present in the liver. The inhibition of CYP enzyme activity (IC50) for each of CYP1A2, CYP2C19, CYP2C9, CYP2D6, CYP3A4(BFC) and CYP3A4(BQ) is determined for compounds, where inhibition of metabolism of a known substrate leads to a decrease in the fluorescence of the metabolized product. The fluorescence of the product is monitored as a function of compound concentration. Compounds are dissolved in dimethyl sulfoxide to a concentration of 100 mM. These are diluted […], into 82 μL of acetonitrile. An 11 μL aliquot of this solution is then added to 204 μL of cofactor mix (1.3% NADPH Regeneration system Solution A, 1.04% NADPH Regeneration system Solution B from BD Biosciences, 5% acetonitrile and 0.05% dimethyl sulfoxide). These are then serially diluted 1:1 (160 μL to 160 μL co-factor mix) for a total of 10 points. A 10 μL aliquot of this final mixture is dispensed into 384 well assay plates and incubated for 10 minutes at 37° C. Enzyme and substrate mix (10 μL; 0.5 pmol CYP1A2/5 μM CEC; 1.0 pmol CYP2C9/75 μM MFC; 0.5 pmol CYP2C19/25 μM CEC; 1.5 pmol CYP2D6/1.5 μM AMMC; 1.0 pmol CYP3A4/50 μM BFC; or 1.0 pmol CYP3A4/40 μM BQ) is added to these assay plates. Assay plates are incubated at 37° C. (CYP1A2-15 min; CYP2C9-45 min; CYP2C19, 2D6 and 3A4-30 min) and read in a Tecan Safire 2 plate reader (CYP1A2, 2C19 and 3A4 409 ex/460 em; CYP2C9 and 2D6 409 ex/530 em). The signal versus compound concentration is used to determine the IC50. The enzymes and substrates for this assay are obtained from BD Biosciences.

[2] = target: CYP3A4(BQ) (Homo sapiens, UniProt P08684); experiment: CYP3A4 inhibition (substrate BQ); format: in vitro ADME; details: read-out: Cyp IC50 (μM) 3A4(BQ)
Description: as §1

[3] = Relative solubility by turbidity in aqueous buffers (pH 1.5, 4.5, 6.8, 7.4); format: physicochemical
How it was run: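 2-fold DMSO dilution series from 25 mM stocks were added to SGF (0.5M NaCl, pH 1.5), SIF (0.05M NaH2PO4, pH 4.5/6.8) or HEPES (10 mM, 150 mM NaCl, pH 7.4). Absorbance at 490, 535 and 650 nm; value is the concentration crossing OD 0.01, averaged over wavelengths. Low <31.3 μM, moderate 31.3–250 μM, high >250 μM.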

[4] = target: CYP2C19 (Homo sapiens, UniProt P33261); experiment: CYP2C19 inhibition (fluorescent substrate CEC); format: in vitro ADME; details: read-out: Cyp IC50 (μM) 2C19
Description: as §1

[5] = target: T1, CYP1A2 (Homo sapiens, UniProt P05177); experiment: CYP1A2 inhibition (fluorescent substrate CEC); format: in vitro ADME; details: read-out: Cyp IC50 (μM) 1A2
T1 sequence (P05177 1-516): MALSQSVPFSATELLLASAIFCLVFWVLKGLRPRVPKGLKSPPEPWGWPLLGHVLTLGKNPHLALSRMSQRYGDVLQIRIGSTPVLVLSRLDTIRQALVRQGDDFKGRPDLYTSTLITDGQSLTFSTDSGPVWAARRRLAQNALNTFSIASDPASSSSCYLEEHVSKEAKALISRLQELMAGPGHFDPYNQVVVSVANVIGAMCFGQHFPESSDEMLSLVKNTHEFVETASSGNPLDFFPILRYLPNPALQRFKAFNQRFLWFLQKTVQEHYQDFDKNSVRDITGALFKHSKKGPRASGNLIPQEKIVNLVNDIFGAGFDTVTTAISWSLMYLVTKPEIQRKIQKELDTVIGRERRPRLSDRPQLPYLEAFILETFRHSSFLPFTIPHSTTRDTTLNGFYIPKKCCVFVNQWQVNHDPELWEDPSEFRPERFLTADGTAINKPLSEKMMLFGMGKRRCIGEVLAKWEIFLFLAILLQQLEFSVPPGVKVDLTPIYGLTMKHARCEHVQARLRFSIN
Description: as §1

[6] = target: CYP3A4(BFC) (Homo sapiens, UniProt P08684); experiment: CYP3A4 inhibition (substrate BFC); format: in vitro ADME; details: read-out: Cyp IC50 (μM) 3A4(BFC)
Description: as §1

[7] = target: CYP2C9 (Homo sapiens, UniProt P11712); experiment: CYP2C9 inhibition (fluorescent substrate MFC); format: in vitro ADME; details: read-out: Cyp IC50 (μM) 2C9
Description: as §1

[8] = target: B-Raf (Homo sapiens, UniProt P15056); experiment: B-Raf kinase activity assay (AlphaScreen, biotin-MEK1 substrate); details: 100 μM ATP, 100 nM biotin-MEK1, 45 minutes at room temperature; read-out: Biochemical activity (IC50 μM) B-Raf
How it was run: (§2)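 AlphaScreen detection of phospho-MEK1 uses anti-phospho-MEK1/2 antibody and donor/acceptor beads, incubated 3 h. The kinase step runs 45 min at room temperature with 0.1 ng enzyme, 100 nM biotin-MEK1 and 100 μM ATP in 50 mM HEPES pH 7.0. IC50 is derived from eight compound concentrations.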

[9] = target: c-Raf-1 (Homo sapiens, UniProt P04049); experiment: c-Raf-1 kinase activity assay (AlphaScreen, biotin-MEK1 substrate); details: 100 μM ATP, 100 nM biotin-MEK1, 45 minutes at room temperature; read-out: Biochemical activity (IC50 μM) c-Raf-1
How it was run: as §2

[10] = target: B-Raf V600E (Homo sapiens, UniProt P15056, V600E); experiment: B-Raf V600E kinase activity assay (AlphaScreen, biotin-MEK1 substrate); details: 100 μM ATP, 100 nM biotin-MEK1, 45 minutes at room temperature, read-out: Biochemical activity (IC50 μM) V600E
How it was run: as §2

[11] = tested on: COLO205 colon adenocarcinoma (B-Raf V600E mutation); experiment: COLO205 cell growth inhibition (ATPlite luminescence); format: cell-based; details: Homo sapiens, COLO 205, 72 h, COLO205 cells, incubated 3 days with compound
Description: Compounds are assessed in a variety of cell based assays. For example human cell lines with B-Raf V600E mutation (A375 melanoma, SKMEL3 melanoma, and COLO205 colon adenocarcinoma), as well as tumorigenic cell lines with wild-type B-RAF (SW620 colon adenocarcinoma) or with Ras mutations (SKMEL2 melanoma and IPC298 melanoma). Similar assays may be used to assess additional tumorigenic cell lines with Ras mutations, including, but not limited to, M202, M207, M243, M244, M296, S117, HCT116, HCT15, DLD1, MiaPaCa, A549, NCI-H23, NCI-H460, HOP62, MDA-MB231, Hs-578T, HL60, MOLT-4, and CCRF-CEM.
On day 1, cells are counted, then centrifuged in a conical tube for 5 minutes at 1000 rpm. The supernatant is removed and cells are re-suspended as follows: • SW620 (ATCC catalog #CCL-27): resuspend in Leibovitz's L-15 medium, 2 mM L-glutamine, 10% fetal bovine serum to 6×10^4 cells/mL. • A375 (ATCC catalog #CRL-1619): resuspend in Dulbecco's modified Eagle's medium, 4 mM L-glutamine, 4.5 g/L D-glucose, 10% fetal bovine serum to 6×10^4 cells/mL. • COLO205 (ATCC catalog #CCL-222): resuspend in RPMI 1640, 2 mM L-glutamine, 1.5 g/L sodium bicarbonate, 4.5 g/L D-glucose, 10 mM HEPES, 1.0 mM sodium pyruvate, 10% fetal bovine serum to 6×10^4 cells/mL. • SKMEL2 (ATCC catalog #HTB-68): resuspend in Minimum Eagle essential medium, 2 mM L-glutamine, 1.5 g/L sodium bicarbonate, 0.1 mM non-essential amino acids, 1.0 mM sodium pyruvate, 10% fetal bovine serum to 6×10^4 cells/mL. • SKMEL3 (ATCC catalog #HTB-69): resuspend in McCoy's 5A medium, 1.5 mM L-glutamine, 15% fetal bovine serum to 6×10^4 cells/mL. • IPC298 (DSMZ catalog #ACC 251): resuspend in RPMI 1640, 2 mM L-glutamine, 10% fetal bovine serum to 6×10^4 cells/mL.
The cells are plated, 50 μL in each well of a 96-well dish (Corning 3610) and incubated at 37° C. in 5% CO2 overnight, cells plated to a final concentration of cells as follows:
On day 2, compound at a maximum concentration of 5 mM is serially diluted 1:3 (e.g. 10 μL with 30 μL dimethyl sulfoxide) for a total of 8 point titration with DMSO as a control. A 1 μL aliquot of each dilution point and control is added to 249 μL growth media and 50 μL is added to a well containing cells, providing 10 μM compound at the maximum concentration point. The cells are incubated for 3 days at 37° C. in 5% CO2.
On day 5, ATPlite 1 step Luminescence Assay System (Perkin Elmer #6016739) is brought to room temperature along with the cell cultures. ATPlite is added 25 μL to each well, shake for 2 minutes, and the cells are incubated at room temperature for 10 minutes, then luminescence is read on Safire reader. The measured luminescence correlates directly with cell number, such that the reading as a function of compound concentration is used to determine the IC50 value.
It is understood that the results of these assays may vary as assay conditions are varied. Inhibition levels determined under the conditions described herein represent a relative activity for the compounds tested under the specific conditions employed. The cell based assays are likely to show variability due to the complexity of the system and the sensitivity thereof to any changes in the assay conditions. […] Results for compounds that are tested and show substantially no inhibition below the highest tested concentration are represented as “-” in the tables below. In some instances, the compounds were not tested in all of the assays, or assay results were not valid, as indicated by NA in the tables below.

Sequence of c-Raf-1 (P04049 whole entry Y340D/Y341D, form open): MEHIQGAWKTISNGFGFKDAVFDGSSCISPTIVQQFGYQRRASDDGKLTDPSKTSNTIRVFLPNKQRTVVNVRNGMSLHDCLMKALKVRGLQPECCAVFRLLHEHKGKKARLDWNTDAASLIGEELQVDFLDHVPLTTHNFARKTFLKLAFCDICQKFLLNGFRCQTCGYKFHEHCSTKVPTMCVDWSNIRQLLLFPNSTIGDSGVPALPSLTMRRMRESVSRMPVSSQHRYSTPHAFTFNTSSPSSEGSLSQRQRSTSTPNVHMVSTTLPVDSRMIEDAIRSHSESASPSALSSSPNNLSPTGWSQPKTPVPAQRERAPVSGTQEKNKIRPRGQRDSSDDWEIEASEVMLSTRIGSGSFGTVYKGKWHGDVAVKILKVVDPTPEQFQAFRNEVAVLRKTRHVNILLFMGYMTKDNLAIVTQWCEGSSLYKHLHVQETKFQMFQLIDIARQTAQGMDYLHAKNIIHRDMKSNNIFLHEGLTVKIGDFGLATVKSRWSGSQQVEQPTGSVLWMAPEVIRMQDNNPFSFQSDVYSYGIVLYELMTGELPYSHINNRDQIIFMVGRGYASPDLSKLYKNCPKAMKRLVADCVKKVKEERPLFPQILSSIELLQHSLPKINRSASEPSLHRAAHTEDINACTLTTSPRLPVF
Sequence of B-Raf (P15056 whole entry): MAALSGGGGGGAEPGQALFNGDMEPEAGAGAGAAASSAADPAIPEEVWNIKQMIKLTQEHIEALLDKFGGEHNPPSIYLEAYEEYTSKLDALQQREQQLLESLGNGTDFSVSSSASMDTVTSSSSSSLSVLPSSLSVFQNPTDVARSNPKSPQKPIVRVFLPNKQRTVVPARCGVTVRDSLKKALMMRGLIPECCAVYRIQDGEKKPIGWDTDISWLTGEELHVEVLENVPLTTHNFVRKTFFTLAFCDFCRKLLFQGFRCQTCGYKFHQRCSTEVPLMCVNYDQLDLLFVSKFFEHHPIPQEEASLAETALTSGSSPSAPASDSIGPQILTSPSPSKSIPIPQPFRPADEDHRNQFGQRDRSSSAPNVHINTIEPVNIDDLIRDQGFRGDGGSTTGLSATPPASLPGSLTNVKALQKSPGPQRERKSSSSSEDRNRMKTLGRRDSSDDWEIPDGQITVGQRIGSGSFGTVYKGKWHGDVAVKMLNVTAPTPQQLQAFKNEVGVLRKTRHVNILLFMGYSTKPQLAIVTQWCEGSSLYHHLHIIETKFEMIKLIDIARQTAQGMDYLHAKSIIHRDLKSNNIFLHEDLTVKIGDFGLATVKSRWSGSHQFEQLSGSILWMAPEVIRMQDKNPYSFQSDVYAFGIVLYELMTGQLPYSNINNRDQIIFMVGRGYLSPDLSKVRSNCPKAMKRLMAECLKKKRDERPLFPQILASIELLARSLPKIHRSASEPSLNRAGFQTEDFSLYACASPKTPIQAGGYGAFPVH
Sequence of B-Raf V600E (P15056 whole entry V600E): as the sequence (P15056 whole entry) above, with V600E counted along it
Sequence of CYP2D6 (P10635 whole entry): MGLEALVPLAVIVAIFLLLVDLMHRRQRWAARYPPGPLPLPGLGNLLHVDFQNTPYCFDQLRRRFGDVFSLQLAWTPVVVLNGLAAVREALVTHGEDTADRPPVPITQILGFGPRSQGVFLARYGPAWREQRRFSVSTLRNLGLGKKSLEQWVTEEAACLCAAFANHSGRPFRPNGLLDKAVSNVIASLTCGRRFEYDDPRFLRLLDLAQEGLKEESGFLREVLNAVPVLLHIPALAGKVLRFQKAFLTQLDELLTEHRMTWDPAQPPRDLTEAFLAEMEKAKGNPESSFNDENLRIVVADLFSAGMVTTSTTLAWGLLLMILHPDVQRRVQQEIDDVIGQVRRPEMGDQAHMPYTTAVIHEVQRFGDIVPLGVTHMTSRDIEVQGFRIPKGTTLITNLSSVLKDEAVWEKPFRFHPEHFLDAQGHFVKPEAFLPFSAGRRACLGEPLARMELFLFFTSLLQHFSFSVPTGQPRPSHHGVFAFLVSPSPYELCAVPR
Sequence of CYP2C9 (P11712 whole entry): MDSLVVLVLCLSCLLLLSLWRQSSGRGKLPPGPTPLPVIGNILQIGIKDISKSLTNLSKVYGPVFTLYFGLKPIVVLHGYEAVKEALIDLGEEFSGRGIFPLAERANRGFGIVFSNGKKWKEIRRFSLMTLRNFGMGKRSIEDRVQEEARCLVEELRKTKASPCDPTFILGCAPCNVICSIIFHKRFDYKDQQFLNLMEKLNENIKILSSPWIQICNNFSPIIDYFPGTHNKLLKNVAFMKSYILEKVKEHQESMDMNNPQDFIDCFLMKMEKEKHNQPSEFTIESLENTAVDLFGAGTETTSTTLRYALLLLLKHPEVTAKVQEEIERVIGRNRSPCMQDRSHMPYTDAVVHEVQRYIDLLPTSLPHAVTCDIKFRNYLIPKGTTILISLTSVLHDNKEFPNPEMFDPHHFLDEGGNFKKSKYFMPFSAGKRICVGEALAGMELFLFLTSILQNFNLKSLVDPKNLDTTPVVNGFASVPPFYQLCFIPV
Sequence of CYP3A4(BFC) (P08684 whole entry): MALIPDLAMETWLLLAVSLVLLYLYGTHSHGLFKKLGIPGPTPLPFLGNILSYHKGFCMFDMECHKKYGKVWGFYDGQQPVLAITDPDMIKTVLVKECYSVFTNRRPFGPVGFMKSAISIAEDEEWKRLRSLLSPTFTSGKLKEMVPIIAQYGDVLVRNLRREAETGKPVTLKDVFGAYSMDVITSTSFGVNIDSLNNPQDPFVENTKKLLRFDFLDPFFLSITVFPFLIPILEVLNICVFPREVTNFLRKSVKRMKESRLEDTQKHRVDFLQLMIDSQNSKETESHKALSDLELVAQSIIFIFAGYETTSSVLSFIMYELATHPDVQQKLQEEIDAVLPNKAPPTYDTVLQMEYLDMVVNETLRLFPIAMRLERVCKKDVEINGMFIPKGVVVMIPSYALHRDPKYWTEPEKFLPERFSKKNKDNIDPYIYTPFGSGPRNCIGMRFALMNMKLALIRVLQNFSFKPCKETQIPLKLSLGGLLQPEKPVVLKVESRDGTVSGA
Sequence of CYP3A4(BQ) (P08684 whole entry): as above
Sequence of CYP2C19 (P33261 whole entry): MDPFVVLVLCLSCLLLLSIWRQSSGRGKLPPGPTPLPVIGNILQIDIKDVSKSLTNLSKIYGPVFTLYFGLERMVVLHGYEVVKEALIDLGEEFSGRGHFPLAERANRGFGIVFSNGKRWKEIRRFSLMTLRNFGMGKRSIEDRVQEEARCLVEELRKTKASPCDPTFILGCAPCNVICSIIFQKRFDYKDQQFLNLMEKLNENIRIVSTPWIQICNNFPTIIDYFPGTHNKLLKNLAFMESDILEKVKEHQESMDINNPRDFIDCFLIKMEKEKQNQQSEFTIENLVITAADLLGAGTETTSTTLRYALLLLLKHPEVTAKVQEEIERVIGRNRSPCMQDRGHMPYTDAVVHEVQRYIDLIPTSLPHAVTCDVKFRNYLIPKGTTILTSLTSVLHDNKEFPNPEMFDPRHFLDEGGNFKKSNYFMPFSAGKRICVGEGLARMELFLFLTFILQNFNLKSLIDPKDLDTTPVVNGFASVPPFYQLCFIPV

| SMILES | IC50 [1] | IC50 [2] | IC50 [4] | IC50 [5] | IC50 [6] | IC50 [7] | IC50 [8] | IC50 [9] | IC50 [10] | IC50 [11] | turbidity threshold (L, M, H) 1.4 ([3]; pH 1.5 buffer (SGF)) | turbidity threshold (L, M, H) 4.5 ([3]; pH 4.5 buffer (SIF)) | turbidity threshold (L, M, H) 6.8 ([3]; pH 6.8 buffer (SIF)) | turbidity threshold (L, M, H) 7.4 ([3]; pH 7.4 buffer (HEPES)) |
| --- | --- | --- | --- | --- | --- | --- | --- | --- | --- | --- | --- | --- | --- | --- |
| CCCS(=O)(=O)Nc1ccc(F)c(C(=O)c2c[nH]c3ncc(-c4ccc5ncccc5c4)cc23)c1F [P-0034, Propane-1-sulfonic acid [2,4-difluoro-3-(5-quinolin-6-yl-1H-pyrrolo[2,3-b]pyridine-3-carbonyl)-phenyl]-amide] | > 10 µM | > 10 µM | > 10 µM | > 10 µM | > 10 µM | > 10 µM | – | – | – | – | – | – | – | – |
| CCCS(=O)(=O)Nc1ccc(F)c(C(=O)c2c[nH]c3ncc(-c4ccc(Cl)c(C(N)=O)c4)cc23)c1F [P-1700, 2-Chloro-5-{3-[2,6-difluoro-3-(propane-1-sulfonylamino)-benzoyl]-1H-pyrrolo[2,3-b]pyridin-5-yl}-benzamide] | – | – | – | – | – | – | < 0.1 µM | < 0.1 µM | < 0.1 µM | < 1 µM | – | – | – | – |
| CCCS(=O)(=O)Nc1ccc(F)c(C(=O)c2c[nH]c3ncc(-c4ccc5c(c4)CNC5=O)cc23)c1F [P-1701, Propane-1-sulfonic acid {2,4-difluoro-3-[5-(1-oxo-2,3-dihydro-1H-isoindol-5-yl)-1H-pyrrolo[2,3-b]pyridine-3-carbonyl]-phenyl}-amide] | – | – | – | – | – | – | < 0.1 µM | < 0.1 µM | < 0.1 µM | < 1 µM | – | – | – | – |
| CCCS(=O)(=O)Nc1ccc(F)c(C(=O)c2c[nH]c3ncc(C(=O)Nc4cccnc4)cc23)c1F [P-1801, 3-[2,6-Difluoro-3-(propane-1-sulfonylamino)-benzoyl]-1H-pyrrolo[2,3-b]pyridine-5-carboxylic acid pyridin-3-ylamide] | – | – | – | – | – | – | < 0.1 µM | < 0.1 µM | < 0.1 µM | > 1 µM | – | – | – | – |

Continued, in another order:

| IC50 [1] | IC50 [2] | IC50 [4] | IC50 [5] | IC50 [6] | IC50 [7] | IC50 [8] | IC50 [9] | IC50 [10] | IC50 [11] | SMILES | turbidity threshold (L, M, H) 1.4 ([3]; pH 1.5 buffer (SGF)) | turbidity threshold (L, M, H) 4.5 ([3]; pH 4.5 buffer (SIF)) | turbidity threshold (L, M, H) 6.8 ([3]; pH 6.8 buffer (SIF)) | turbidity threshold (L, M, H) 7.4 ([3]; pH 7.4 buffer (HEPES)) |
| --- | --- | --- | --- | --- | --- | --- | --- | --- | --- | --- | --- | --- | --- | --- |
| > 10 µM | > 10 µM | < 5 µM | > 10 µM | > 10 µM | > 10 µM | – | – | – | – | CCCS(=O)(=O)Nc1ccc(F)c(C(=O)c2c[nH]c3ncc(-c4ccc5cccnc5c4)cc23)c1F [P-0033, Propane-1-sulfonic acid [2,4-difluoro-3-(5-quinolin-7-yl-1H-pyrrolo[2,3-b]pyridine-3-carbonyl)-phenyl]-amide] | L (low solubility if the threshold concentration is <31.3 μM) | L (low solubility if the threshold concentration is <31.3 μM) | L (low solubility if the threshold concentration is <31.3 μM) | L (low solubility if the threshold concentration is <31.3 μM) |
| – | – | – | – | – | – | < 0.1 µM | < 0.1 µM | < 0.1 µM | < 1 µM | CCCS(=O)(=O)Nc1ccc(F)c(C(=O)c2c[nH]c3ncc(-c4ccc5c(c4)C(=O)NC5)cc23)c1F [P-1702, Propane-1-sulfonic acid {2,4-difluoro-3-[5-(3-oxo-2,3-dihydro-1H-isoindol-5-yl)-1H-pyrrolo[2,3-b]pyridine-3-carbonyl]-phenyl}-amide] | – | – | – | – |
| – | – | – | – | – | – | < 0.1 µM | < 0.1 µM | < 0.1 µM | < 1 µM | CCCS(=O)(=O)Nc1ccc(F)c(C(=O)c2c[nH]c3ncc(-c4ccc5c(c4)CC(=O)N5)cc23)c1F [P-1703, Propane-1-sulfonic acid {2,4-difluoro-3-[5-(2-oxo-2,3-dihydro-1H-indol-5-yl)-1H-pyrrolo[2,3-b]pyridine-3-carbonyl]-phenyl}-amide] | – | – | – | – |
